Earlier results as cited in patent US20010006974A1, “COMBINATION THERAPY FOR LYMPHOPROLIFERATIVE DISEASES” (priority 1999, published 2001).

Key:
[1] = system: refractory/relapsed B-CLL; details: refractory/relapsed B-CLL patients
refractory lymphomas = details: monotherapy; 5 mg/m^2 for 3 consecutive day every 3 weeks
bcl-2 = details: correlated with theophylline-induced apoptosis
cAMP = details: correlated with theophylline-induced apoptosis

SMILES | response rate [1] | response rate (refractory lymphomas) | activity as a single agent (alkylator-refractory CLL) | bcl-2 regulation (bcl-2) | intracellular level of cAMP (cAMP)
OC[C@H]1O[C@@H](n2cnc3c2NC=NC[C@H]3O)C[C@@H]1O [pentostatin, 2′-deoxycoformycin] | 30% | 32% |  |  | 
Cn1c(=O)c2[nH]cnc2n(C)c1=O [theophylline] |  |  | no activity | down-regulation | increased
